The source of these data is ChEMBL document CHEMBL1201862, “PubChem BioAssay data set” (2004).

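Each compound was tested at five concentrations against cells in 96-well plates for 48 hours. GI50 = concentration required for 50% inhibition of growth.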 Active and inactive are the calls of the source. Cut-off read from the data, not from the text of the source: active = GI50 up to about 1.1 µM and inactive = higher.

One may read the GI50 as the concentration giving 50% growth inhibition.

Among the test systems are EKVX; MDA-MB-435; K562; PC-3; T47D; DU-145; Hs-578T; A549; MCF7; NCI-H226; 786-0; NCI-H460; SF-539; OVCAR-8; LOX IMVI; A498; ACHN; SN12C; SK-OV-3; SR.
Common to all, as to test: DTP human tumour cell line panel, 48 h

Turning to `CCCCCCCCCC[C@H](O)[C@H](O)CC[C@@H](O)[C@H]1CC[C@@H]([C@H]2CC[C@H](CCCCCCC[C@@H](O)CC3=C[C@H](C)OC3=O)O2)O1`, the GI50 in the test on EKVX is 1.46 µM (inactive); in the test on MDA-MB-435, 1.31 µM (inactive); in the test on K562 it was 1.7 µM (inactive); with PC-3 it was 2.23 µM (inactive); with T47D it was 3.16 µM (inactive); with DU-145 it was 4.65 µM (inactive). The GI50 in the test with Hs-578T is 2.79 µM (inactive); in the test with A549, 1.84 µM (inactive); in the test with MCF7, 1.16 µM (inactive); in the test with NCI-H226 it was 1.47 µM (inactive); in the test on 786-0, 6.3 µM (inactive); in the test with NCI-H460, 1.82 µM (inactive). The GI50 is 4.48 µM (inactive) in the test with SF-539; 2.95 µM (inactive) in the test with OVCAR-8; 1.33 µM (inactive) in the test on LOX IMVI; 8.97 µM (inactive) in the test with A498; 17.4 µM (inactive) with ACHN; 4.06 µM (inactive) with SN12C.
Regarding `CC(C)(C)N1C(=O)[N-]/[N+](=C(/C(c2ccccc2)=[N+]2/[N-]C(=O)N(C(C)(C)C)C2=O)c2ccccc2)C1=O`, the GI50 with MDA-MB-435, in the test with K562, in the test with PC-3, in the test with T47D, in the test on DU-145 and in the test on Hs-578T was > 100 µM (inactive) throughout. In addition, the GI50 with A549, with MCF7, in the test on 786-0, with NCI-H460, with SK-OV-3 and with SF-539 was > 100 µM (inactive) each time. Further, the GI50 in the test on LOX IMVI, in the test on A498, in the test on ACHN and in the test on SN12C was > 100 µM (inactive) in each case.
For the compound `CCc1cc2c(c3c1CCCC3=O)CC1(Cc3ccc(C(=O)OC)cc3C1)C2` (centres undefined), the GI50 in the test with EKVX was 96.6 µM (inactive); with MDA-MB-435, 37.2 µM (inactive); with K562 it was 22 µM (inactive); in the test with PC-3 it was 14.4 µM (inactive); in the test on T47D it was 65.2 µM (inactive); in the test with DU-145 it was > 100 µM (inactive). For the same compound, the GI50 in the test on Hs-578T was > 100 µM (inactive); in the test with A549, 48.4 µM (inactive); in the test on MCF7, 24 µM (inactive); in the test on NCI-H226, > 100 µM (inactive); in the test with 786-0 it was 84.5 µM (inactive); in the test on NCI-H460, > 100 µM (inactive). Besides, the GI50 was > 100 µM (inactive) in the test on SK-OV-3; > 100 µM (inactive) in the test with SF-539; > 100 µM (inactive) with OVCAR-8; 84.5 µM (inactive) in the test on LOX IMVI; > 100 µM (inactive) in the test on A498; 25.6 µM (inactive) with ACHN. Moreover, the GI50 with SN12C was > 100 µM (inactive).
For the compound `C[C@]12CC(c3ccccc3O1)C(C#N)C(=O)N2` (some centres undefined), the GI50 with EKVX, with MDA-MB-435, with K562, in the test on PC-3, in the test on T47D and in the test with DU-145 was > 100 µM (inactive) throughout. Besides, the GI50 with Hs-578T, in the test on A549, with MCF7, in the test with NCI-H226, in the test on 786-0 and with NCI-H460 was > 100 µM (inactive) in each case. Besides, the GI50 with SK-OV-3, in the test on OVCAR-8, with LOX IMVI, with A498, in the test with ACHN and with SN12C was > 100 µM (inactive) each time. Besides, the GI50 in the test on SR is > 100 µM (inactive).
Consider `OCCSCc1cc(Cl)cc(Cl)c1O`, for which the GI50 with EKVX, in the test with MDA-MB-435, in the test on K562, in the test on PC-3, with T47D and with DU-145 was > 100 µM (inactive) throughout. In addition, the GI50 is > 100 µM (inactive) in the test with Hs-578T; > 100 µM (inactive) in the test on A549; > 100 µM (inactive) in the test on MCF7; 61.7 µM (inactive) in the test with NCI-H226; > 100 µM (inactive) with 786-0; > 100 µM (inactive) in the test with NCI-H460. Further, the GI50 in the test on SK-OV-3, in the test on OVCAR-8, with LOX IMVI, in the test with A498, in the test on ACHN and in the test on SN12C was > 100 µM (inactive) in each case.
Take `N#Cc1sc2c(c1OC(=O)c1ccccc1)c(=O)n(-c1ccccc1)c(=S)n2-c1ccccc1`: the GI50 with EKVX was 28.6 µM (inactive); in the test on MDA-MB-435, 24 µM (inactive); in the test with K562, 27.6 µM (inactive); in the test on PC-3, 19.5 µM (inactive); in the test on T47D, 16.2 µM (inactive); in the test on DU-145 it was 31 µM (inactive). Also, the GI50 in the test with Hs-578T is 14.8 µM (inactive); in the test with A549 it was 29.3 µM (inactive); in the test with MCF7 it was 19.2 µM (inactive); in the test on NCI-H226, 18.1 µM (inactive); in the test with 786-0, 30.3 µM (inactive); in the test on NCI-H460, 30.3 µM (inactive). Besides, the GI50 was 35.6 µM (inactive) in the test on SK-OV-3; 23.8 µM (inactive) in the test with SF-539; 36.5 µM (inactive) in the test on OVCAR-8; 19.8 µM (inactive) in the test with LOX IMVI; 26.4 µM (inactive) in the test with SN12C; 30.8 µM (inactive) in the test with SR.
With `CCOC(=O)c1ccc(/N=C2\Sc3nc4ccccc4n3\C2=N\c2ccc(C(=O)OCC)cc2)cc1`, the GI50 in the test with EKVX was 42.6 µM (inactive); with MDA-MB-435, 59.2 µM (inactive); with PC-3, 37.7 µM (inactive); with T47D, 48.1 µM (inactive); with DU-145, 28.9 µM (inactive); in the test on Hs-578T, 22.6 µM (inactive). Besides, the GI50 in the test on A549 was 25.2 µM (inactive); in the test with MCF7, 8.83 µM (inactive); in the test with NCI-H226, 29.2 µM (inactive); with 786-0, 11.8 µM (inactive); in the test on NCI-H460, 22.5 µM (inactive); with SK-OV-3 it was 40.8 µM (inactive). In addition, the GI50 was 21 µM (inactive) in the test with SF-539; 29.4 µM (inactive) in the test with OVCAR-8; 14.2 µM (inactive) in the test with LOX IMVI; 34.3 µM (inactive) in the test on A498; 22.3 µM (inactive) with ACHN; 40.6 µM (inactive) in the test with SN12C.
As to `CCn1c(=O)c2nc(SC)sc2n(-c2ccc(C)cc2)c1=O`, the GI50 in the test with MDA-MB-435 is 2.17 µM (inactive); with K562 it was > 100 µM (inactive); in the test on PC-3, > 100 µM (inactive); in the test on T47D, > 100 µM (inactive); with DU-145, > 100 µM (inactive); in the test with Hs-578T it was 21.3 µM (inactive). Moreover, the GI50 was > 100 µM (inactive) in the test with A549; > 100 µM (inactive) in the test with MCF7; > 100 µM (inactive) with NCI-H226; 0.401 µM (active) in the test on 786-0; > 100 µM (inactive) in the test with NCI-H460; > 100 µM (inactive) with SK-OV-3. In addition, the GI50 in the test with SF-539, in the test on OVCAR-8, with LOX IMVI, with ACHN, in the test on SN12C and in the test on SR was > 100 µM (inactive) each time.
In the case of `COC[C@H](Cc1ccccc1)/N=C/c1ccccc1`, the GI50 in the test with EKVX, with MDA-MB-435, with K562, in the test on PC-3, with T47D and with DU-145 was > 100 µM (inactive) in each case. For the same compound, the GI50 in the test with Hs-578T, in the test on A549, with MCF7, in the test with 786-0, in the test on NCI-H460 and with SK-OV-3 was > 100 µM (inactive) in each case. Moreover, the GI50 in the test with OVCAR-8, in the test with LOX IMVI, in the test with ACHN, in the test with SN12C and with SR was > 100 µM (inactive) in each case.
Turning to `CC(C)(C)n1c(=O)n2n(c1=O)C1c3cccc4cccc(c34)C2C2c3cccc4cccc(c34)C1n1c(=O)n(C(C)(C)C)c(=O)n12`, the GI50 with EKVX is 63.1 µM (inactive); with MDA-MB-435, > 100 µM (inactive); with K562 it was 87.5 µM (inactive); with PC-3, 59.8 µM (inactive); with T47D, 44.9 µM (inactive); with DU-145 it was 80.2 µM (inactive). The GI50 in the test on Hs-578T is 64.3 µM (inactive); with A549 it was 78.3 µM (inactive); in the test on MCF7, > 100 µM (inactive); in the test on NCI-H226, 84.1 µM (inactive); with 786-0 it was > 100 µM (inactive); in the test on NCI-H460, 64.7 µM (inactive). In addition, the GI50 was 96.8 µM (inactive) in the test with SK-OV-3; 41.4 µM (inactive) in the test on SF-539; 86.9 µM (inactive) in the test on OVCAR-8; 42.8 µM (inactive) in the test on LOX IMVI; > 100 µM (inactive) in the test with A498; 61.4 µM (inactive) with ACHN. Besides, the GI50 with SN12C was > 100 µM (inactive).
`Oc1nc2nc3ccccc3nc2nc1O`: the GI50 in the test on EKVX, in the test with MDA-MB-435, in the test on K562, in the test on PC-3, in the test with T47D and with DU-145 was > 100 µM (inactive) throughout. Further, the GI50 with Hs-578T, in the test on A549, in the test with MCF7, in the test with NCI-H226, with 786-0 and in the test on NCI-H460 was > 100 µM (inactive) throughout. Moreover, the GI50 in the test on SK-OV-3, with SF-539, in the test with OVCAR-8, in the test on LOX IMVI, in the test with ACHN and in the test with SN12C was > 100 µM (inactive) throughout. In addition, the GI50 in the test with SR is > 100 µM (inactive).
